In patent US20130102556A1, “Use of N1,N4-bis[3-(Ethylamino)Propyl]-2-Butene-1,4-Diamine Compounds in Combination with Epigenetic-Acting Pharmaceuticals for Enhanced Cancer Therapy” (THE JOHNS HOPKINS UNIVERSITY, priority 2010, published 2013):

Columns and labels:
[1] = tested on: H3K4me2; assay: Global H3K4me2 histone mark in Calu-6 cells, Western blot of nuclear protein; format: cell-based, human; conditions: Calu-6, increasing doses (1, 5, 10 μM), 24 hours of treatment
[2] = tested on: acetylated H3K9 (AcH3K9); assay: Global acetylated H3K9 histone mark in Calu-6 cells, Western blot of nuclear protein; format: cell-based, human; conditions: Calu-6, increasing doses, 24 and 48 hours

CCNCCCNC/C=C\CNCCCNCC [PG-11047, (2Z)-N1,N4-bis[3-(ethylamino)propyl]-2-butene-1,4-diamine]
increase in H3K4me2 protein [1]: 2-4 fold
increase in global amounts of acetylated H3K9 protein [2]: 2-3 fold
